These results are taken from patent US9688710B2, “Inhibitors of sodium glucose cotransporter 1” (LEXICON PHARMACEUTICALS, INC., priority 2012, dated 2017).

Assay [1] has as its target Human sodium/glucose co-transporter type 1 (SGLT1) (Homo sapiens (Human), UniProt P13866). Nature of the assay: In vitro human SGLT1 inhibition assay (14C-AMG uptake). Particulars: HEK293 cells expressing human HA-SGLT1, 14C-AMG uptake. The class given is cell-based. The arrangement: key to SGLT1 (human SGLT1 IC50): ***: a value less than 0.01 μM; **: a value less than 0.1 μM; *: a value less than 1 μM; —: a value not measured or exceeding μM. Summed up: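 Uptake of 14C-AMG (100 nCi) was measured by scintillation counting after 1–2 h at 37 °C, 5% CO2, with or without compound. The buffer was pH 7.3 with 140 mM NaCl, 1 mM CaCl2, 1 mM MgCl2 and 1 mg/mL BSA. Cells were a stable HEK293 line carrying HA-SGLT1 (human), plated overnight at 30,000 per well.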

For assay [2], the target named is Human sodium/glucose co-transporter type 2 (SGLT2) (Homo sapiens (Human), UniProt P31639). Nature of the assay: In vitro human SGLT2 inhibition assay (14C-AMG uptake). The class given is cell-based. The note with it: HEK293 cells expressing human HA-SGLT2, 14C-AMG uptake. An outline of the steps: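 Uptake of 14C-AMG (100 nCi) was followed in a stable HEK293 HA-SGLT2 line over 1-2 h at 37 °C with or without compound. Buffer: 140 mM NaCl, 10 mM HEPES, 5 mM Tris, 1 mg/mL BSA, pH 7.3. Readout was scintillation counting after washing.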
Chain of Human sodium/glucose co-transporter type 2 (SGLT2) (P31639 whole entry): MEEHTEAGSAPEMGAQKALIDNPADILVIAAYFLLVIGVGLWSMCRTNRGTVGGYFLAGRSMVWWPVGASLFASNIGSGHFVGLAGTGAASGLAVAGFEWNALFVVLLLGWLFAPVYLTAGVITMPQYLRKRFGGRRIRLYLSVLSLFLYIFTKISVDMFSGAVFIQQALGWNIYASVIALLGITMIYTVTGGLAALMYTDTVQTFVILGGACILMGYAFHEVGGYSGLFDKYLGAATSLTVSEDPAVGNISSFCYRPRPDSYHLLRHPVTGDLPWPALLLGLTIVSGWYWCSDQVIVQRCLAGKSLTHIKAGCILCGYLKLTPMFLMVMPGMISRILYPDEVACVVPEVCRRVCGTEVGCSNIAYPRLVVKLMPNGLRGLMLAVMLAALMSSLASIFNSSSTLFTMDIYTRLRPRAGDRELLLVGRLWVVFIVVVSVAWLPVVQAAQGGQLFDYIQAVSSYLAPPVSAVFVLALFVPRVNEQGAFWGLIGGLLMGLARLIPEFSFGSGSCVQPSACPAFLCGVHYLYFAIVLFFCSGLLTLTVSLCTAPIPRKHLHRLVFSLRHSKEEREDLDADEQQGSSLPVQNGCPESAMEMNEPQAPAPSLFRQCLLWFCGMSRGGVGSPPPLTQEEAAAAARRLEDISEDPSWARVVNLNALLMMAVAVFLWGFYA

Chain of Human sodium/glucose co-transporter type 1 (SGLT1) (P13866 whole entry): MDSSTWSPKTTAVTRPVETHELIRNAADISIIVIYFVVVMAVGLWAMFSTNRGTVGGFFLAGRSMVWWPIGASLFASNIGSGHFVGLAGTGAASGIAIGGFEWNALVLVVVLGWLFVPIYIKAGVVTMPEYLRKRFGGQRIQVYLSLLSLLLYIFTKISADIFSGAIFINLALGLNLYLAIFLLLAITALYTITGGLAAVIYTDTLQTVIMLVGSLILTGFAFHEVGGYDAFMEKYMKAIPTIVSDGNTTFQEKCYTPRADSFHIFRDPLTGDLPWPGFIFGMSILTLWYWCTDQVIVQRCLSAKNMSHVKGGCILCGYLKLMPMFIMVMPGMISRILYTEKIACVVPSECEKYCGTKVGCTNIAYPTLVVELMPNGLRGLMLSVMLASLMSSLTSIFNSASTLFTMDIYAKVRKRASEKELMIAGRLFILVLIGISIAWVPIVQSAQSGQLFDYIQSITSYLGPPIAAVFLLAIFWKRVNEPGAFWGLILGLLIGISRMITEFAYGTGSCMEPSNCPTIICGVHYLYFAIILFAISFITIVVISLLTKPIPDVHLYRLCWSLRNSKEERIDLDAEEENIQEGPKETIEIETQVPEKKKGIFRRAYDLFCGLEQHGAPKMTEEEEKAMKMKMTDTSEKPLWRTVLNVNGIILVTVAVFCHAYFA

In the case of `CS[C@H]1O[C@@H](c2ccc(C)c(Cc3ccc(CCCC(=O)NC(C)(C)C(=O)NCCN(C)C)cc3)c2)[C@H](O)[C@@H](O)[C@@H]1O` [N-(1-((2-(dimethylamino)ethyl)amino)-2-methyl-1-oxopropan-2-yl)-4-(4-(2-methyl-5-((2S,3R,4R,5S,6R)-3,4,5-trihydroxy-6-(methylthio)tetrahydro-2H-pyran-2-yl)benzyl)phenyl)butanamide], the IC50 in assay [1] and in assay [2] was < 10 nM throughout.

With `CNC(=O)C(C)(C)NC(=O)CCCc1ccc(Cc2cc([C@@H]3O[C@H](SC)[C@@H](O)[C@H](O)[C@H]3O)ccc2C)cc1` [N-(2-methyl-1-(methylamino)-1-oxopropan-2-yl)-4-(4-(2-methyl-5-((2S,3R,4R,5S,6R)-3,4,5-trihydroxy-6-(methylthio)tetrahydro-2H-pyran-2-yl)benzyl)phenyl)butanamide], the IC50 in assay [1] and in assay [2] was < 10 nM in each case.

For the compound `CS[C@H]1O[C@@H](c2ccc(C)c(Cc3ccc(OCCCC(=O)NC(C)(C)CO)cc3)c2)[C@H](O)[C@@H](O)[C@@H]1O` [N-(1-hydroxy-2-methylpropan-2-yl)-4-(4-(2-methyl-5-((2S,3R,4R,5S,6R)-3,4,5-trihydroxy-6-(methylthio)tetrahydro-2H-pyran-2-yl)benzyl)phenoxy)butanamide], the IC50 in assay [1] and in assay [2] was < 10 nM throughout.

Consider `CS[C@H]1OC(c2ccc(C)c(Cc3ccc(OCCNC(=O)NCC(C)(C)C(N)=O)cc3)c2)[C@H](O)[C@@H](O)[C@@H]1O` (stereo partly drawn) [2,2-dimethyl-3-(3-(2-(4-(2-methyl-5-((3R,4R,5S,6R)-3,4,5-trihydroxy-6-(methylthio)tetrahydro-2H-pyran-2-yl)benzyl)phenoxy)ethyl)ureido)propanamide], for which the IC50 in assay [1] and in assay [2] was < 10 nM each time.

Take `CS[C@H]1O[C@@H](c2ccc(C)c(Cc3ccc(OCCCC(=O)N[C@@H](CC(N)=O)C(N)=O)cc3)c2)[C@H](O)[C@@H](O)[C@@H]1O` [(S)-2-(4-(4-(2-methyl-5-((2S,3R,4R,5S,6R)-3,4,5-trihydroxy-6-(methylthio)tetrahydro-2H-pyran-2-yl)benzyl)phenoxy)butanamido)succinamide]: the IC50 was < 100 nM in assay [1] and < 10 nM in assay [2].

Regarding `CS[C@H]1O[C@@H](c2ccc(C)c(Cc3ccc(Cl)cc3)c2)[C@H](O)[C@@H](O)[C@@H]1O` [(2S,3R,4R,5S,6R)-2-(3-(4-chlorobenzyl)-4-methylphenyl)-6-(methylthio)tetrahydro-2H-pyran-3,4,5-triol], the IC50 in assay [1] is < 100 nM; in assay [2], < 10 nM.

As for `CS[C@H]1O[C@@H](c2ccc(C)c(Cc3ccc(CCCCN)cc3)c2)[C@H](O)[C@@H](O)[C@@H]1O` [(2S,3R,4R,5S,6R)-2-(3-(4-(4-aminobutyl)benzyl)-4-methylphenyl)-6-(methylthio)tetrahydro-2H-pyran-3,4,5-triol], the IC50 in assay [1] and in assay [2] was < 10 nM in each case.

With `CS[C@H]1O[C@@H](c2ccc(C)c(Cc3ccc(CCCC(=O)NC(C)(C)C(=O)N4CCN(C)CC4)cc3)c2)[C@H](O)[C@@H](O)[C@@H]1O` [N-(2-methyl-1-(4-methylpiperazin-1-yl)-1-oxopropan-2-yl)-4-(4-(2-methyl-5-((2S,3R,4R,5S,6R)-3,4,5-trihydroxy-6-(methylthio)tetrahydro-2H-pyran-2-yl)benzyl)phenyl)butanamide], the IC50 in assay [1] and in assay [2] was < 10 nM in each case.

For `CS[C@H]1O[C@@H](c2ccc(Cl)c(Cc3ccc(OCCCNC(=N)N)cc3)c2)[C@H](O)[C@@H](O)[C@@H]1O` [1-(3-(4-(2-chloro-5-((2S,3R,4R,5S,6R)-3,4,5-trihydroxy-6-(methylthio)tetrahydro-2H-pyran-2-yl)benzyl)phenoxy)propyl)guanidine], the IC50 in assay [1] and in assay [2] was < 10 nM each time.

In the case of `CS[C@H]1O[C@@H](c2ccc(C)c(Cc3ccc(OCCCC(=O)NC4(C(=O)N5CCN(C)CC5)CCCC4)cc3)c2)[C@H](O)[C@@H](O)[C@@H]1O` [4-(4-(2-methyl-5-((2S,3R,4R,5S,6R)-3,4,5-trihydroxy-6-(methylthio)tetrahydro-2H-pyran-2-yl)benzyl)phenoxy)-N-(1-(4-methylpiperazine-1-carbonyl)cyclopentyl)butanamide], the half-inhibitory concentration (IC50) in assay [1] and in assay [2] was < 10 nM in each case.

As to `CS[C@H]1O[C@@H](c2ccc(C)c(Cc3ccc(CCCCC(=O)NC(C)(C)CO)cc3)c2)[C@H](O)[C@@H](O)[C@@H]1O` [N-(1-hydroxy-2-methylpropan-2-yl)-5-(4-(2-methyl-5-((2S,3R,4R,5S,6R)-3,4,5-trihydroxy-6-(methylthio)tetrahydro-2H-pyran-2-yl)benzyl)phenyl)pentanamide], the IC50 in assay [1] and in assay [2] was < 10 nM in each case.

For the compound `CS[C@H]1O[C@@H](c2ccc(C)c(Cc3ccc(CCCC(=O)NCCN(CCNC(=O)CCCc4ccc(Cc5cc([C@@H]6O[C@H](SC)[C@@H](O)[C@H](O)[C@H]6O)ccc5C)cc4)CCNC(=O)CCCc4ccc(Cc5cc([C@@H]6O[C@H](SC)[C@@H](O)[C@H](O)[C@H]6O)ccc5C)cc4)cc3)c2)[C@H](O)[C@@H](O)[C@@H]1O` [(S,R,S,R,R,S,R,S,R,R)-N,N′,N″-(nitrilotris(ethane-2,1-diyl))tris(4-(4-(2-methyl-5-((2S,3R,4R,5S,6R)-3,4,5-trihydroxy-6-(methylthio)tetrahydro-2H-pyran-2-yl)benzyl)phenyl)butanamide)], the 50% inhibitory concentration (IC50) in assay [1] was < 100 nM; in assay [2], < 10 nM.

On to `CS[C@H]1O[C@@H](c2ccc(C)c(Cc3ccc(/C=C/C[C@H](N)C(=O)O)cc3)c2)[C@H](O)[C@@H](O)[C@@H]1O` [(S,E)-2-amino-5-(4-(2-methyl-5-((2S,3R,4R,5S,6R)-3,4,5-trihydroxy-6-(methylthio)tetrahydro-2H-pyran-2-yl)benzyl)phenyl)pent-4-enoic acid], for which the values for the IC50 in assay [1] and in assay [2] were < 100 nM and < 10 nM, respectively.

Regarding `CS[C@H]1O[C@@H](c2ccc(Cl)c(Cc3ccc(OCCCC(=O)N(C)C(C)(C)CO)cc3)c2)[C@H](O)[C@@H](O)[C@@H]1O` [4-(4-(2-chloro-5-((2S,3R,4R,5S,6R)-3,4,5-trihydroxy-6-(methylthio)tetrahydro-2H-pyran-2-yl)benzyl)phenoxy)-N-(1-hydroxy-2-methylpropan-2-yl)-N-methylbutanamide], the half-maximal inhibitory concentration (IC50) in assay [1] is < 100 nM; in assay [2], < 10 nM.

For the compound `CS[C@H]1O[C@@H](c2ccc(C)c(Cc3ccc(OCCCC(=O)NCC(C)(C)C(=O)N4CCN(C)CC4)cc3)c2)[C@H](O)[C@@H](O)[C@@H]1O` [N-(2,2-dimethyl-3-(4-methylpiperazin-1-yl)-3-oxopropyl)-4-(4-(2-methyl-5-((2S,3R,4R,5S,6R)-3,4,5-trihydroxy-6-(methylthio)tetrahydro-2H-pyran-2-yl)benzyl)phenoxy)butanamide], the half-maximal inhibitory concentration (IC50) in assay [1] and in assay [2] was < 10 nM in each case.

Regarding `CS[C@H]1O[C@@H](c2ccc(Cl)c(Cc3ccc(OCC[C@H](N)C(=O)O)cc3)c2)[C@H](O)[C@@H](O)[C@@H]1O` [(S)-2-amino-4-(4-(2-chloro-5-((2S,3R,4R,5S,6R)-3,4,5-trihydroxy-6-(methylthio)tetrahydro-2H-pyran-2-yl)benzyl)phenoxy)butanoic acid], the “SGLT1 (human SGLT1 IC50)” value in assay [1] was “—”. Also, the IC50 in assay [2] is < 100 nM.

Turning to `CS[C@H]1O[C@@H](c2ccc(Cl)c(Cc3ccc(OCCNC(=O)C(C)(C)CO)cc3)c2)[C@H](O)[C@@H](O)[C@@H]1O` [N-(2-(4-(2-chloro-5-((2S,3R,4R,5S,6R)-3,4,5-trihydroxy-6-(methylthio)tetrahydro-2H-pyran-2-yl)benzyl)phenoxy)ethyl)-3-hydroxy-2,2-dimethylpropanamide], the IC50 in assay [1] and in assay [2] was < 10 nM throughout.

On to `CS[C@H]1O[C@@H](c2ccc(Cl)c(Cc3ccc(OCCCC(=O)NC4CCCCC4N4CCOCC4)cc3)c2)[C@H](O)[C@@H](O)[C@@H]1O` (stereo partly drawn) [4-(4-(2-chloro-5-((2S,3R,4R,5S,6R)-3,4,5-trihydroxy-6-(methylthio)tetrahydro-2H-pyran-2-yl)benzyl)phenoxy)-N-(2-morpholinocyclohexyl)butanamide], for which the IC50 in assay [1] was < 100 nM; in assay [2] it was < 10 nM.

Take `CS[C@H]1O[C@@H](c2ccc(C)c(Cc3ccc(CCCC(=O)O)cc3)c2)[C@H](O)[C@@H](O)[C@@H]1O` [4-(4-(2-methyl-5-((2S,3R,4R,5S,6R)-3,4,5-trihydroxy-6-(methylthio)tetrahydro-2H-pyran-2-yl)benzyl)phenyl)butanoic acid]: the figures for the IC50 in assay [1] and in assay [2] were < 100 nM and < 10 nM, respectively.

For `CS[C@H]1O[C@@H](c2ccc(C)c(Cc3ccc(OCC(=O)O)cc3)c2)[C@H](O)[C@@H](O)[C@@H]1O` [2-(4-(2-methyl-5-((2S,3R,4R,5S,6R)-3,4,5-trihydroxy-6-(methylthio)tetrahydro-2H-pyran-2-yl)benzyl)phenoxy)acetic acid], the “SGLT1 (human SGLT1 IC50)” value in assay [1] is on record as “—”. For the same compound, in assay [2], the IC50 is < 100 nM.

On to `CS[C@H]1O[C@@H](c2ccc(C)c(Cc3ccc(CCCCCCC(=O)NC(C)(C)CO)cc3)c2)[C@H](O)[C@@H](O)[C@@H]1O` [N-(1-hydroxy-2-methylpropan-2-yl)-7-(4-(2-methyl-5-((2S,3R,4R,5S,6R)-3,4,5-trihydroxy-6-(methylthio)tetrahydro-2H-pyran-2-yl)benzyl)phenyl)heptanamide], for which the IC50 in assay [1] is < 100 nM; in assay [2], < 10 nM.
